Source: publication PMC4237514, “Novel amino-β-lactam derivatives as potent cholesterol absorption inhibitors” (European Journal of Medicinal Chemistry, 2014)

Target: T1, human NPC1L1 (Homo sapiens, UniProt Q9UHC9)
T1 construct: expressed in transfected cells
T1 sequence (Q9UHC9 22-1359): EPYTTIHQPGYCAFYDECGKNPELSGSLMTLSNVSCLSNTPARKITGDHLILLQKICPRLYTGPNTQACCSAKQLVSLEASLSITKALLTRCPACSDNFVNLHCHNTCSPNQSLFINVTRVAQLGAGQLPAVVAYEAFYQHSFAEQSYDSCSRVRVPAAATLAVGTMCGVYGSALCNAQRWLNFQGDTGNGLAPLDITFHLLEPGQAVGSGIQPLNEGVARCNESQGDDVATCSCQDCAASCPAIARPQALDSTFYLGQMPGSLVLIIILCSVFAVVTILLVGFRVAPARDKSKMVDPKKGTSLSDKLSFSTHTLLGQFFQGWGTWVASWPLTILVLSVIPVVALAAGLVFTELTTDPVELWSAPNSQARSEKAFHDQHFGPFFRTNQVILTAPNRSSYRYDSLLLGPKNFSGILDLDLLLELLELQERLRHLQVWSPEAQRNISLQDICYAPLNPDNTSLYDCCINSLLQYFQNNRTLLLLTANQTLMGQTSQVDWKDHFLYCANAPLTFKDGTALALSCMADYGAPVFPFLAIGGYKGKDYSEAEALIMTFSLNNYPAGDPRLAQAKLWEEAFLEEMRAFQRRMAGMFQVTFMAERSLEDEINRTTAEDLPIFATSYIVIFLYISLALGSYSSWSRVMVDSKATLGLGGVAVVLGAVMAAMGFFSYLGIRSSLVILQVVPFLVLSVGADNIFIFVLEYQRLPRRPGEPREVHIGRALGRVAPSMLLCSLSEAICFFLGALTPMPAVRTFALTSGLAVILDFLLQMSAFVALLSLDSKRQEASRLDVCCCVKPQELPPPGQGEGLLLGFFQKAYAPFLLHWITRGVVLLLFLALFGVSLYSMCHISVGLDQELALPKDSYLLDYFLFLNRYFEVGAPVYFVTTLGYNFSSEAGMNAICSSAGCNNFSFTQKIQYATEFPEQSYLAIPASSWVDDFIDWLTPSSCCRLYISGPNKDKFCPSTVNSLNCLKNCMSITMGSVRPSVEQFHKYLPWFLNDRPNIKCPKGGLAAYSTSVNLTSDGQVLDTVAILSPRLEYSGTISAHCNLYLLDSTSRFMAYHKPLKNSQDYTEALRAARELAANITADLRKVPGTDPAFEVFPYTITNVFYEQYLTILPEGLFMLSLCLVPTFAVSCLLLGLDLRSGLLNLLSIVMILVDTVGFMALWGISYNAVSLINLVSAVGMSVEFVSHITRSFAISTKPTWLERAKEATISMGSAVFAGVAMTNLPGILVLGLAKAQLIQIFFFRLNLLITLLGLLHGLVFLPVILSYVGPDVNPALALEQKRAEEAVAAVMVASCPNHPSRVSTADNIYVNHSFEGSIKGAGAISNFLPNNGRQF
Test: In vitro [3H]cholesterol uptake assay in hNPC1L1/MDCKII cells
Assay type: cell-based
Conditions: for IC50: 1 h, read-out: IC50, cholesterol uptake inhibition; for inhibition at 120 µM: MDCK-II, maximum at 120 μM, compared to untreated cells
Experimental: Medium A contained DMEM plus 100 units/mL penicillin and 100 μg/mL streptomycin supplemented with 5% lipoprotein-deficient serum (density > 1.21 g/mL, prepared from FCS by ultracentrifugation). Cholesterol Replenishing Medium (Medium B) was prepared according to the modified method reported by Field et al.. In brief, 0.25 mM oleic acid, 50 μM free cholesterol, 10 μM compactin, 50 μM mevalonate, 5 mM Na-taurocholate (Sigma–Aldrich, Germany), and [^3H]cholesterol (0.18 μCi/mL medium, [1,2–3H(N)] cholesterol, 1 mCi/mL (ARC Inc., USA)) in Medium A were mixed and sonicated. Following the micellar formation, compounds 1, 5, 6, 5/6 (70:30), and 6/5 (85:15) (73 mM stock solution in DMSO) were added to Medium B and vortexed to obtain the final concentrations (10, 30, 60, 90, 120, 150, 200 μM).
MDCKII wildtype and hNPC1L1/MDCKII cells were seeded in 24-well plates at a density of 5 × 10^5 cells/mL medium (500 μL medium/well) in Medium A 24 h before the treatment. Cells were washed once with PBS and incubated in Medium B (500 μL medium/well) containing micelles and tested compounds in indicated concentrations for 1 h. Following the incubation, the medium was removed and cells were washed three times with ice-cold 0.2% free fatty acid-free BSA. Cells were lysed and radioactivity in the lysate (100 μL) was determined by liquid scintillation counting. Protein concentrations of the lysates were determined with the DC Protein Assay (Bio-Rad, USA). The results were calculated as cpm/mg protein and expressed as percentage of inhibition compared to untreated cells. Each concentration was tested in duplicate in three independent experiments.

SMILES | IC50 | inhibition at 120 µM | effect on cholesterol uptake (Figure S3)
O=C1[C@H](NC[C@@H](O)c2ccc(F)cc2)[C@@H](c2ccc(O)cc2)N1c1ccc(F)cc1 [Compound 6, (3R,4R)-3-[(2S)-2-(4-fluorophenyl)-2-hydroxyethylamino]-1-(4-fluorophenyl)-4-(4-hydroxyphenyl)azetidin-2-one] | 80 µM | 50 to 55% | –
O=C1[C@H](NCC(O)c2ccc(F)cc2)[C@@H](c2ccc(O)cc2)N1c1ccc(F)cc1 (mixture of isomers) [5/6 (70:30), (3R,4R)-3-[(2R/S)-2-(4-fluorophenyl)-2-hydroxyethylamino]-1-(4-fluorophenyl)-4-(4-hydroxyphenyl)azetidin-2-one] | 60 µM | 50 to 55% | –
O=C1[C@H](NC[C@H](O)c2ccc(F)cc2)[C@@H](c2ccc(O)cc2)N1c1ccc(F)cc1 [Compound 5] | 72 µM | 50 to 55% | –
O=C1[C@H](CC[C@H](O)c2ccc(F)cc2)[C@@H](c2ccc(O)cc2)N1c1ccc(F)cc1 [Compound 1, ezetimibe, reference compound] | – | – | inhibited cholesterol uptake
